This is an account of results in patent US20030144477A1, “Immunodominant acetylcholine receptor alpha subunit peptide: MHC complexes” (Corixa Corporation, priority 2001, published 2003).

In general, IC50 refers to the concentration at which inhibition is half-maximal. A low value points to greater potency in that assay.

For assay [1], the target named is HLA-DR3 (a mix of DRB1*0301 and DRB3*0101). In words: DELFIA competitive binding assay against biotinylated MBP 84-102, solubilized HLA-DR3. Set-up: species or system human. As to conditions: for IC50: competitive binding to solubilized HLA-DR3, pH 5.5, vs biotinylated MBP 84-102; for affinity for HLA-DR3: in words, from IC50. The text has this:
(§1) Important peptides in MG can be identified, for example, by screening a set of overlapping AChR peptides for binding to HLA-DR2 and HLA-DR3. The binding affinity of a peptide to the MHC compound can be measured using a variety of binding assays known to those of skill in the art. An example of suitable binding assay is the europium-based competitive binding assay (see, e.g., Tompkins et al. (1993) J. Immunol. Methods 163:209-216). Additionally, the capacity of the peptides of the invention to induce a T cell response can be determined using a variety of standard methods, known to those of skill in the art, as described below.
(§2) A set of 68 overlapping AChRα peptides (14 mer with 7 amino acids overlapping) was tested by dissociation-enhanced lenthanide fluoroimmunoassay (“DELFIA”) competitive binding assay for their relative affinity to […]. […] The sequence of the AChRα subunit is shown with each of the transmembrane regions (M1-M4) indicated by a shaded box.) Ten-fold dilutions (preferably 1-100,000 nM) of unlabeled AChRα peptides were co-incubated at pH 5.5 with the biotinylated myelin basic protein peptide MBP 84-102, and the IC50 of binding to solubilized HLA-DR2 (a mix of DRB1*1501 and DRB5*0101) or HLA-DR3 (a mix of DRB1*0301 and DRB3*0101) was measured. Measurement of the IC50 is preferably done by europium-streptavidin dissociation-enhanced lenthanide fluoroimmunoassay (DELFIA) and the IC50 typically calculated by four parameter fit analysis with the software program SOFTmax Pro. FIG. 2 lists the IC50s of each AChRα peptide binding to HLA-DR2 and HLA-DR3.

A further assay addresses HLA-DR1. The experiment in a line: DELFIA europium-based competitive binding assay, HLA-DR1. Details: species or system human. To be noted: competitive binding to HLA-DR1.
Assay [2] addresses solubilized HLA-DR2 (a mix of DRB1*1501 and DRB5*0101) (Homo sapiens, UniProt P01903+P01911+Q30154). The experiment in a line: DELFIA competitive binding assay against biotinylated MBP 84-102, solubilized HLA-DR2. To be noted: for relative affinity for HLA-DR2: in words, from IC50 / 1/IC50 plot.
Excerpt: as §1
A set of 68 overlapping AChRα peptides (14 mer with 7 amino acids overlapping) was tested by dissociation-enhanced lenthanide fluoroimmunoassay (“DELFIA”) competitive binding assay for their relative affinity to HLA-DR4. […] Measurement of the IC50 is preferably done by europium-streptavidin dissociation-enhanced lenthanide fluoroimmunoassay (DELFIA) and the IC50 typically calculated by four parameter fit analysis with the software program SOFTmax Pro.

In assay [3] the test system is PBMCs from MG patients and normal healthy individuals. The experiment in a line: modified ELISPOT assay of T cell reactivity (γ-IFN spots, reactive index). It counts as cell-based, human. As to conditions: reactive index above two; HLA type ignored; 9 MG patients vs 30 normals. The text has this:
In addition, a modified ELISPOT assay, termed the Clonal Expansion ELISA-Spot (or CEE-SPOT) assay can also be used in the context of the present invention. In the CEE-SPOT assay, PBMCs are stimulated with antigen for an appropriate amount of time (e.g., 7 days) to promote proliferation of the antigen-specific T cells prior to re-stimulation and lymphokine capture (e.g., on day 10). […] The production of lymphokines can be measured using this assay, including, e.g., IL-2, IL-4, etc. Typically, lymphokine is captured on a filter, preferably a PVDF filter to improve the background and intensity of the spots. Spot counting is typically carried out using videocamera imaging and computer analysis. This type of assay can also be used to identify epitopes derived from natural processing, by first stimulating T cells with the whole protein and then re-stimulating them with peptides derived from the protein.
T cell reactivity of the above peptides to patient and normal healthy individual PBMCs was measured by modified ELISPOT assay. PBMCs obtained from 30 normals and 9 MG patients were included in this study. The above peptides along with TT/PPD as positive control and media as negative control were tested for T cell reactivity. […] Antigen specific cell stimulation profile for each antigen was measured by the secretion of γ-IFN detected as spots using a pair of anti-γIFN antibodies set. […]

For assay [4], the target named is solubilized DR4 (HLA-DR4). In words: europium-based competitive binding assay using solubilized DR4. Set-up: species or system human. To be noted: competitive binding to solubilized DR4. The method, then: as §2
In addition, the relative affinity for HLA-DR4 of a set of sixty nine synthetic overlapping peptides of AchRα (14 mer with 7 amino acids overlapping) was measured by a europium-based competitive binding assay using solubilized DR4. The concentration of AchR peptides required to inhibit 50% binding of a known DR4 binding peptide was calculated for each peptide. High affinity peptides were identified based on their IC50 value.

Another assay concerns HLA-DR2. In words: IC50. From the text:
Table printed on a drawing sheet, FIGURE 4
The best fit of AChRα peptide sequences to published HLA-DR2 motifs is indicated along with the IC50 value.
First copying reader's note: Sequences are printed with horizontal offsets as a motif alignment; the offsets are not reproduced in the grid.

Peptide text beside a SMILES is read from it.

As for `CC(C)C[C@H](NC(=O)[C@H](CCCCN)NC(=O)[C@H](C)NC(=O)[C@@H](NC(=O)[C@@H](N)CC(C)C)C(C)C)C(=O)N[C@@H](Cc1ccccc1)C(=O)N[C@@H](CCCCN)C(=O)N[C@@H](CC(=O)O)C(=O)N[C@@H](Cc1ccc(O)cc1)C(=O)N[C@@H](CO)C(=O)N[C@@H](CO)C(=O)N[C@H](C(=O)N[C@H](C(=O)N[C@@H](CCCNC(=N)N)C(=O)N1CCC[C@H]1C(=O)N[C@H](C(=O)O)C(C)C)C(C)C)C(C)C` [AChRα 7-22], the 50% inhibitory concentration (IC50) in assay [1] is 6.15 µM; at HLA-DR1, greater than 100 µM. The “affinity for HLA-DR3” value in assay [1] is reported as “high affinity”. On to `CC[C@H](C)[C@H](NC(=O)[C@H](CCC(N)=O)NC(=O)[C@H](CC(N)=O)NC(=O)[C@@H](NC(=O)[C@H](CCC(=O)O)NC(=O)[C@H](CC(=O)O)NC(=O)[C@@H](NC(=O)[C@H](CC(N)=O)NC(=O)[C@@H](NC(=O)[C@H](CC(C)C)NC(=O)[C@H](CCC(N)=O)NC(=O)[C@@H](NC(=O)[C@H](CC(C)C)NC(=O)[C@@H](N)CCC(N)=O)[C@@H](C)CC)[C@@H](C)CC)C(C)C)C(C)C)C(=O)O` [AChRα 36-49] (H-QLIQLINVDEVNQI-OH; N-terminus and C-terminus assumed), for which the IC50 in assay [2] (competitive binding to solubilized HLA-DR2, pH 5.5, vs biotinylated MBP 84-102) is 11 µM; in assay [4] it was 3.63 µM; in assay [1], 7.3 µM; on HLA-DR1, 11.2 µM. Also, the “per cent of patients that show reactivity compared with per cent of normal healthy individuals” value in assay [3] is “approximately twice”. Also, the “affinity for HLA-DR3” value in assay [1] is “high affinity”. `CC[C@H](C)[C@H](NC(=O)[C@H](Cc1ccccc1)NC(=O)[C@H](Cc1ccc(O)cc1)NC(=O)[C@H](CC(C)C)NC(=O)[C@@H]1CCCN1C(=O)[C@H](CC(C)C)NC(=O)[C@H](CCCNC(=N)N)NC(=O)[C@H](CCC(N)=O)NC(=O)[C@H](CCSC)NC(=O)[C@@H](NC(=O)[C@H](Cc1ccccc1)NC(=O)[C@@H](N)Cc1c[nH]cn1)C(C)C)C(=O)N[C@H](C(=O)N[C@@H](CC(N)=O)C(=O)O)C(C)C` [AChRα 204-217]: the IC50 in assay [1] came to 71.3 µM; on HLA-DR1 it was 1.75 µM. Take DTPYLDITYHFVMQRLPL [AChRα 195-212]: the “affinity for HLA-DR3” value in assay [1] was “high affinity”.

As to “I P N I M F F S T M K R P S R E K Q (IPNIMFFSTMKRPSREKQ) [AChRα 320-337]”, it took 6.61 µM to reach half-maximal inhibition in the assay on HLA-DR2 (IC50). As for MKLGTWTYDGSVVAINPESD [AChRα 144-163], the “affinity for HLA-DR3” value in assay [1] was “high affinity”. For “NWVRKVFIDTIPNIMFFS [AChRα 310-327, AChRα subunit peptide fragment, residues 310-327]”, the “relative affinity for HLA-DR2” value in assay [2] is reported as “high relative affinity”.

For “TGHITWTPPAIFKS [AChRα 113-126, AChRα subunit peptide fragment, residues 113-126] [listing 1 of 2 here]”, the IC50 in the assay on HLA-DR2 worked out at 2.83 µM.

As for “TGHITWTPPAIFKS [AChRα 113-126, AChRα subunit peptide fragment, residues 113-126] [listing 2 of 2 here]”, the “relative affinity for HLA-DR2” value in assay [2] is listed as “high relative affinity”. “V E V T V G L Q L I Q L I N (VEVTVGLQLIQLIN) [AChRα 27-42]”: the IC50 in the assay on HLA-DR2 came out at 9.18 µM.

Turning to “V I I P C L L F S F L T G L (VIIPCLLFSFLTGL) [AChRα 218-231]”, half-maximal inhibition in the assay with HLA-DR2 (IC50) required 6.79 µM.
